Here are results for three compounds from US9944752B2, “Block copolymers for stable micelles” (Intezyne Technologies, Inc., priority 2012, dated 2018).

The subject of data set [1] is PANC-1 pancreatic (folate receptor +) cancer cells. The experiment in a line: In-vitro cytotoxicity of aminopterin formulations (cell titer-glo). The data set is classed as cell-based. The following applies: Homo sapiens, PANC-1, 72 h, read-out: IC50 (cell viability inhibited by 50%). How it is done: (§1) Cells originally purchased from ATCC (A549, Panc-1, OVCAR3, and BXPC-3) were seeded in 96 well tissue culture plates to be 50% confluent by 24 hours. Cells were incubated at 37° C. with 5.0% CO2. Cells were treated with escalating doses of free aminopterin, crosslinked aminopterin formulation, uncrosslinked aminopterin formulation, and non drug-loaded micelle formulations 24 hours after plate seeding. Free aminopterin was dissolved in DMSO and administered to cells with a total volume of DMSO equal to or less than 0.0025%. Micelle formulations were re-suspended in biology grade water. Dilutions were done in deep well plates with cell media and water or DMSO (for free aminopterin only) equalizing displaced volume. Incubation media was aspirated from the 96 well plates and 100 μl of each dilution was added to the wells in triplicate and incubated over 72 hours at 37° C. with 5.0% CO2. Crosslinked and uncrosslinked non drug-loaded micelle formulations were administered at the four highest doses and were calculated at comparative mg/ml concentrations to drug-loaded micelle concentrations of delivery vehicle. […] Plates were briefly shaken to mix and luminescence readings were read on a plate reader. Luminescence reading for triplicate doses are averaged and divided by average luminescence readings from untreated cells on the same plate to calculate the % of viable cells per dose. […]
In general terms: In ATP-based viability assays light output follows the ATP content of the culture.

The subject of data set [2] is A549 lung cancer cells. Described as above. In kind it is cell-based. Conditions: Homo sapiens, A549, 72 h, read-out: IC50 (cell viability inhibited by 50%). The procedure:
as §1

The nature of data set [3]: Rat pharmacokinetics of crosslinked cabizataxel micelles. More on the design: species or system Fisher rats. Conditions: Fisher, in vivo, iv, 5 mg/kg. From the text:
The delivery vehicle for drug administration was isotonic saline.

Details of data set [4]: species or system Fisher rats. The following applies: Fisher, rat, in vivo, iv, 10 mg/kg. The procedure:
The delivery vehicle for drug administration was isotonic saline. […] Samples were analyzed on a Waters Alliance 2695 equipped with a 2475 fluorescence detector (Ex=470 nm; Em=580). A 5 μL sample injection was made onto a Waters 4 μm Nova Pak C18 (3.9×150 mm) at 30° C. with a flow rate of 0.750 mL per minute of 10 mM phosphate buffer (pH=1.4), methanol and acetonitrile (gradient from 70/10/20 to 40/10/50 for buffer/methanol/acetonitrile was made over eight minutes). Analyte eluted at 5.9 minutes under these conditions, was normalized to the internal standard, and quantitated using a standard curve comprised of seven standards.

`Nc1nc(N)c2nc(CNc3ccc(C(=O)N[C@@H](CCC(=O)O)C(=O)O)cc3)cnc2n1` [Aminopterin, aminopterin]: the IC50 in data set [1] and in data set [2] was 7 to 25 nM in each case.
In turn, `CO[C@H]1C(=O)[C@]2(C)[C@@H](OC)C[C@H]3OC[C@@]3(OC(C)=O)[C@H]2[C@H](OC(=O)c2ccccc2)[C@]2(O)C[C@H](OC(=O)[C@H](O)[C@@H](NC(=O)OC(C)(C)C)c3ccccc3)C(C)=C1C2(C)C` [free cabizataxel, cabazitaxel] showed an Exposure of cabazitaxel to the plasma compartment over 15 minutes in data set [3] of 200 ng·h/mL.
In data set [4], `COc1cccc2c1C(=O)c1c(O)c3c(c(O)c1C2=O)C[C@@](O)(C(C)=O)C[C@@H]3O[C@H]1C[C@H](N)[C@H](O)[C@H](C)O1` [free daunorubicin, daunorubicin] came in with a CMax of 3.3 µg/mL and a Half-life of 3.3 h.
